Where two headings read alike, the source gives them in different places.
What was measured:
[1] = system: LPS-induced NO production; test: LPS-induced NO production in RAW 264.7 macrophage (Griess reaction); type: cell-based, murine; settings: RAW 264.7 macrophage, nitrite by Griess reaction, read-out: IC50, inhibition against LPS-induced NO production
Method: RAW 264.7 cells were cultured in Rosewell Park Memorial Institute (RPMI) 1640 media (without phenol red) supplemented with 10% endotoxin-free, heat-inactivated fetal calf serum, 100 units/ml penicillin, and 100 μg/ml streptomycin. When the cells reached a density of 2-3×10^6 cells/ml, they were activated by incubation in a medium containing E. coli lipopolysaccharide (LPS) (100 ng/ml). Various concentrations of compounds of the disclosure in dimethyl sulphoxide (DMSO) were added together with LPS. Cells were treated with 0.05% DMSO as the vehicle control. The stimulated murine macrophage cell line RAW 264.7 cells were washed with PBS and lysed in an ice-cold RIPA buffer (Tris-HCl, pH 7.2, 25 mM; 0.1% SDS; 1% Triton X-100; 1% sodium deoxycholate; 0.15 M NaCl; 1 mM EDTA) containing 1 mM phenylmethyl sulphonyl fluoride (PMSF), 10 μg/mL aprotinin, 1 mM sodium ortho-vanadate, and 5 μg/mL leupeptin. Protein concentrations were determined using the BCA method (Pierce, Rockford, Ill.). The samples (50 μg of protein) were mixed with 5-fold of sample buffer containing 0.3 M Tris-HCl (pH 6.8), 25% 2-mercaptoethanol, 12% sodium dodecyl sulphate (SDS), 25 mM EDTA, 20% glycerol, and 0.1% bromophenol blue. The mixtures were boiled at 100° C. for 5 min, prerun on a stacking gel, and then resolved by 12% SDS-polyacrylamide minigels at a constant current of 20 mA. For western blot, proteins on the gel were electro-transferred onto a […] immobile polyvinylidene fluoride (PVDF) membrane with a transfer buffer composed of 25 mM Tris-HCl (pH 8.9), 192 mM glycine, and 20% methanol, as described by Pan et al. (2000). Membrane blocking was then carried out at room temperature for 1 h in blocking solution (20 mM Tris-HCl pH 7.4, 125 mM NaCl, 0.2% Tween 20, 1% bovine serum albumin, and 0.1% sodium azide). The membrane was incubated with the primary antibody of iNOS and COX-2 at 4° C. overnight. The membranes were subsequently probed with selected IgG antibody conjugated to horseradish peroxidase (Transduction Laboratories, Lexington, Ky.) and visualized using enhanced chemiluminescence (ECL, Amersham). The densities of the bands were quantitated using a densitometer (AlphaImager 2200 System). All the membranes were stripped and reprobed for β-actin (Sigma Chemical Co., St. Louis, Mo.) as loading control. […] The inhibition of iNOS induction by compounds of the disclosure may be due to down regulation of iNOS gene expression. […] (7b) Inhibition Against LPS-Induced NO Production in RAW 264.7 Macrophage The LPS-induced NO production by the macrophages was determined as nitrite concentration in the culture medium according to the Griess reaction. […] The absorbance of the mixture at 550 nm was measured with an ELISA plate reader (Dynatech MR-7000; Dynatech Laboratories, Chantilly, Va., USA). […]

supercoiled pBR322 DNA = test: Hydroxyl radical-induced DNA scission; settings: 1 μM test compounds, H2O2/Fe2SO4, 37° C., 1 hour, FIG. 2
Method: For hydroxyl radical-induced DNA oxidation, 2 μL of test compounds dissolved in ethanol were added into an Eppendorf tube and the solvent was evaporated under a nitrogen stream. To the tube 2 μL of distilled water were added, followed by thorough vortexing for 1 min. The following reagents were then added to the tube in the order as stated: 2 μL of PBS (pH7.4), 2 μL of supercoiled pBR322 DNA, 2 μL of H2O2 and 2 μL of Fe2SO4. The mixture (10 μL) containing 1 μM test compounds, 0.1M PBS, 10 μg/ml DNA, 0.2 mM H2O2 and 0.1 mM Fe2SO4 (final concentration/assay) was incubated at 37° C. for 1 hour.
After incubation, 1 μL of loading dye (0.25% bromophenol blue/0.25% xylene cyanol/50% glycerol) was added, and the whole mixture was loaded onto an agarose gel. […] The images were analyzed using AlphaEase stand-alone software (Alpha Innotech Co., San Leandro, Calif.) and the intensity or density of the bands (obtained from densitometer) was used as the indicator of concentration of the native (supercoiled) and nicked DNA fractions. Antioxidant activity was calculated as DNA retention according to the following equation: % retention=100×(native DNAsample/native DNAblank) where, DNAsample and DNAblank are normalized concentrations of native supercoiled DNA in total DNA for sample groups and blank, respectively. […]

SMILES	IC50 ([1]; Mus musculus, RAW264.7)	Antioxidant activity against hydroxyl radical-induced DNA scission (supercoiled pBR322 DNA)	IC50 [1]
CCCCCCCCCCCCCCCCCC(=O)Oc1cc(C(=O)OC2Cc3c(O)cc(O)cc3OC2c2cc(OC(=O)CCCCCCCCCCCCCCCCC)c(O)c(OC(=O)CCCCCCCCCCCCCCCCC)c2)cc(OC(=O)CCCCCCCCCCCCCCCCC)c1O (stereo not shown) [Compound 1a, EGCG stearate]	40.7 µM		
CCC=CCC=CCC=CCC=CCC=CCCCC(=O)Oc1cc(C(=O)OC2Cc3c(O)cc(O)cc3OC2c2cc(OC(=O)CCCC=CCC=CCC=CCC=CCC=CCC)c(O)c(OC(=O)CCCC=CCC=CCC=CCC=CCC=CCC)c2)cc(OC(=O)CCCC=CCC=CCC=CCC=CCC=CCC)c1O (stereo not shown) [Compound 1b]		the most potent antioxidant among all	
O=C(O[C@@H]1Cc2c(O)cc(O)cc2O[C@@H]1c1cc(O)c(O)c(O)c1)c1cc(O)c(O)c(O)c1 [EGCG, Epigallocatechin gallate, reference compound]	103 µM		103 µM

Reference: patent publication US9018248B2, “Fatty acid derivatives of catechins and methods of their use” (Genesis Group Inc., priority 2010, dated 2015)
